Assay results taken from PubChem BioAssay (NCI).
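These data come from cells grown in 96-well plates and exposed to compound for 48 hours at five concentrations. TGI: concentration producing complete growth inhibition.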 Where a SMILES comes first, the peptide text is derived from it. The star is where a group is joined. Cbz = O=C(OCc1ccccc1)*; Boc = CC(C)(C)OC(=O)*; tBu = CC(C)(C)*

What was measured:
Assay in all cases: growth of human tumour cells (NCI), 48 h
[1] = tested on: CAKI-1 renal
[2] = tested on: OVCAR-8 ovarian
[3] = tested on: T-47D breast
[4] = tested on: SW-620 colon
[5] = tested on: UO-31 renal
[6] = tested on: K-562 leukemia
[7] = tested on: SF-268 CNS
[8] = tested on: OVCAR-3 ovarian
[9] = tested on: HS 578T breast
[10] = tested on: SNB-75 CNS

SMILES	TGI [1] [µM]	TGI [2] [µM]	TGI [3] [µM]	TGI [4] [µM]	TGI [5] [µM]	TGI [6] [µM]	TGI [7] [µM]	TGI [8] [µM]	TGI [9] [µM]	TGI [10] [µM]
O=c1c2cc(S(=O)(=O)O)ccc2nc(COc2ccc(Oc3ccc(Cl)cc3Cl)cc2)n1-c1ccc(Cl)cc1Oc1c(Cl)cccc1Cl	> 100	75.1	> 100	79.6	37	> 100	35.7	61.1	76.3	
CC(=O)OCCOCn1cnc2c(Cl)nc(Cl)nc21	0.832	44.2	25.6	30.7	36.4	5.43	36.6	27.2	40.4	51.7
CC(OC(C)(C)C)C(NC(=O)C(CCCCNC(=O)OC(C)(C)C)NC(=O)C(Cc1c[nH]c2ccccc12)NC(=O)C(Cc1ccccc1)NC(=O)OCc1ccccc1)C(=O)NC(Cc1ccccc1)C(=O)O (configuration not stated) (Cbz-FWK(Boc)T(tBu)F-OH; configuration not given here)	> 100	> 100	73.6	> 100	> 100	> 100	> 100	85	44.4	> 100
Cc1ccc(NC(=S)N/N=C(/c2ccccc2)c2ccccn2)cc1	9.48	14	12.6	20.9	7.68	4.61	1.32	12.5	81.8	5.16
CC1ON2CCCC2[C@H]1C(=O)N1C2CC3CCC2(CS1(=O)=O)C3(C)C (some centres not stated)	> 100	> 100	> 100	> 100	> 100	> 100	> 100	> 100	> 100	> 100
N#Cc1nc(C2=C(Cl)c3ccccc3OC2)[nH]c1C#N	> 100	> 100		> 100	59.9	> 100	> 100	70.9	> 100	
C=C1CCC23CC(CC[C@@H]2[C@@]12C[C@@H](c1ccoc1)OC2=O)OC3=O (some centres not stated)	> 100	> 100		> 100	> 100	> 100	> 100	> 100		
COc1ccc(-c2cc(=O)c3ccccc3[nH]2)c(OC)c1		> 100		> 100	> 100	> 100	> 100	> 100		> 100
Cc1[nH]n(C2=NCCN2)c(=O)c1Cc1ccccc1	> 100	> 100	> 100	> 100	> 100	> 100	> 100	> 100	> 100	
CC1(C)CC(=O)C(/C=N/c2nc(-c3ccccc3)cs2)=C(O)C1		> 100	> 100	> 100	> 100			> 100		> 100
COc1ccc(N2C(=O)c3cc(C)cnc3S2(=O)=O)cc1		> 100		> 100	> 100	> 100	> 100	> 100	> 100	> 100
CCOC(=O)C(Cc1cn(S(=O)(=O)c2ccccc2)c2ccccc12)(NC(C)=O)C(=O)OCC	> 100	> 100		> 100	55.8	> 100	> 100	> 100		33.3
CCCCCCCCCCN(CCCCCCCCCC)C(=O)COc1c2cc(C(C)(C)C)cc1Cc1cc(C(C)(C)C)cc(c1OCC(=O)N(CCCCCCCCCC)CCCCCCCCCC)Cc1cc(C(C)(C)C)cc(c1OCC(=O)N(CCCCCCCCCC)CCCCCCCCCC)Cc1cc(C(C)(C)C)cc(c1OCC(=O)N(CCCCCCCCCC)CCCCCCCCCC)C2		16.6	32.3	14.2	37.1	4.87	29.9	29.1		32.5
O=C1C(Cl)C(c2cccc(Cl)c2)N1c1ccc(-n2c(=S)[nH]c3ccccc3c2=O)cc1 (configuration not stated)	> 100	> 100	> 100	> 100	49	45.3	39	> 100	62.1	
CCN(CC)CC(=O)O[C@]1(CC)C(=O)OCc2c1cc1n(c2=O)Cc2cc3ccccc3nc2-1	0.145	3.65	0.404	4.33	0.182	38.3		0.947	> 100	0.677
COc1cccc(/C=C2\C(=O)N(C(=O)c3ccc(NC(C)=O)cc3)N=C2C)c1	> 100	> 100		> 100	> 100	> 100	> 100	> 100		> 100
CCOC(=O)C1(C(=O)OCC)C[C@H](C)[C@](C)(O)C1	> 100	> 100		> 100	> 100	> 100	> 100	> 100	> 100	> 100
C=CCc1cc(-c2cc(CC=C)c(O)c(CNCCCl)c2)cc(CNCCCl)c1O		49.4		44.3	28.6	52.1	60.5	43.9		> 100
N#C/C(N)=C(\C#N)N=CN		> 100	> 100	> 100	> 100	> 100	> 100	> 100	> 100	> 100
C=C(CC[C@@H](C)[C@H]1CC[C@@]2(C)C3=C(CC[C@]12C)[C@@]1(C)CC[C@H](O)[C@@H](C)C1CC3)C(C)C (some centres not stated)	2.26	3.53		3.44	2.35	1.18		3.59	3.13	2.49
O=C(O)Cc1cc(O)c(CC(=O)O)cc1O	> 100	> 100	> 100	> 100	> 100	> 100	> 100	> 100	> 100	
c1ccc2c(c1)nc1n2CNC1	> 100		> 100	> 100	> 100	> 100	> 100	> 100	> 100	> 100
